In PMC8746528, “Novel Substituted Purine Isosteres: Synthesis, Structure-Activity Relationships and Cytotoxic Activity Evaluation” (Molecules, 2021):

Experiments:
[1] = tested on: HCT116 colon cancer cell line; experiment: MTT cell viability assay, HCT116; assay type: cell-based; conditions: Homo sapiens, HCT-116, treatment 72 h and 96 h, mean ± SD of three experiments
Procedure: (§1) The human HCT116 colon cancer cell line and PC-3 prostate cancer cell line were obtained from the American Type Cell Culture (ATCC, Bethesda, Md). Both cell lines were grown in 75 cm^2 culture flasks at 37 °C in 5% CO2 using Roswell Park Memorial Institute 1640 medium (RPMI 1640, Gibco) and Dulbecco’s modified Eagle’s medium F/12 (DMEM/F-12, Gibco), respectively, containing 10% fetal bovine serum (FBS, Gibco). To test the inhibitory activities of compounds using a cell-based assay, MTT assay was performed for cell viability, as described previously. Briefly, HCT116 cells were plated at a density of 1500 per well, while PC-3 cells were plated at a density of 750 per well in a 96-well plate. After 24 h, cells were treated with the indicated compounds in a dose-dependent manner for 72 h and 96 h (all tested compounds provided clear solutions). MTT [3-(4,5-dimethylthiazol-2-yl)-2,5-diphenyltetrazolium bromide] (Sigma M-5655) was added at a final concentration of 0.5 mg/mL directly to each well for 4 h at 37 °C. The medium was aspirated, and the blue MTT formazan precipitate was dissolved in dimethyl sulfoxide (DMSO). Absorbance was determined in a Powerwave microplate spectrophotometer (Biotek Instruments, Inc.) at 540 nm. Viable cell numbers were determined by tetrazolium conversion to its formazan dye. The IC50 was calculated by Microsoft Excel equation and confirmed by GraphPad Prism (7.0). Each experiment was performed in triplicate and mean values ± SD are reported.

[2] = tested on: PC-3 prostate cancer cell line; experiment: MTT cell viability assay, PC-3; assay type: cell-based; conditions: Homo sapiens, treatment 72 h and 96 h, mean ± SD of three experiments
Procedure: as §1

[3] = tested on: normal human fibroblasts (WI-38); experiment: MTT cytotoxicity towards normal fibroblasts; assay type: cell-based; conditions: WI-38; for IC50: MTT, normal human fibroblasts
Procedure: as §1
Figure 1 Dose-response curves for the administration of 14b, 26b, 35b on HCT116, PC-3 and WI-38 cells, as assessed by the MTT assay. Results are expressed as a percentage of controls. Statistical analysis was performed in triplicate determination at p < 0.05.

PC-3 cells [4] = experiment: Annexin V-7AAD apoptosis assay; assay type: cell-based, human; conditions: positive control at 25 nM, PC-3
Procedure: (§2) For cell cycle analysis, cell culture supernatants and attached cells were collected, centrifuged, washed in PBS, fixed in 50% ethanol and stained with an RNase-containing propidium iodide solution (50 μg/mL) (all reagents from Sigma). For cell apoptosis assay, cells were harvested and stained with Annexin V binding buffer, Annexin V–FITC and 7-AAD (Annexin V-FITC Apoptosis Detection Kit, BD Systems). DNA content was analyzed on a BD Accuri C6 Flow Cytometer using the BD CSampler software (BD Biosciences, USA). Non-apoptotic events were used to calculate the percentage of cells distributed in each phase. A p value < 0.05 was considered to be statistically significant (Student’s t-test).

PC-3 cells [5] = experiment: DNA staining (propidium iodide) and flow cytometric cell cycle analysis; assay type: cell-based, human; conditions: positive control at 25 nM, PC-3
Procedure: as §2

Row | SMILES | IC50 [1] [µM] | IC50 [2] [µM] | melting point [°C] | cytotoxicity to normal cells in words [3] | IC50 [3] [µM] | induction of apoptosis (PC-3 cells [4]) [%] | G2/M phase blockade (PC-3 cells [5]) [%]
1 | COc1ccc(Cn2cc(-c3ccccc3)c3ccnc(Nc4ccccc4)c32)cc1 [10a, 1-(4-Methoxybenzyl)-Ν,3-diphenyl-1H-pyrrolo[2,3-c]pyridin-7-amine] | 2.4 ± 0.1 | > 10 | 180 to 181 | – | – | – | –
2 | COc1ccc(Cn2cc(-c3cccc(F)c3)c3ccnc(Nc4ccccc4)c32)cc1 [10b, 3-(3-Fluorophenyl)-1-(4-methoxybenzyl)-Ν-phenyl-1H-pyrrolo[2,3-c]pyridin-7-amine] | > 10 | > 10 | 165 to 166 | – | – | – | –
3 | COc1ccc(Cn2cc(-c3ccccc3)c3ccnc(Nc4cc(OC)c(OC)c(OC)c4)c32)cc1 [10c, 1-(4-Methoxybenzyl)-Ν-(3,4,5-trimethoxyphenyl)-3-phenyl-1H-pyrrolo[2,3-c]pyridin-7-amine] | 9.4 ± 0.53 | 9.8 ± 0.25 | 136 to 137 | – | – | – | –
4 | COc1ccc(Cn2cc(-c3cccc(F)c3)c3ccnc(Nc4cc(OC)c(OC)c(OC)c4)c32)cc1 [10d, 3-(3-Fluorophenyl)-1-(4-methoxybenzyl)-Ν-(3,4,5-trimethoxyphenyl)-1H-pyrrolo[2,3-c]pyridin-7-amine] | > 10 | > 10 | 93 to 94 | – | – | – | –
5 | COc1ccc(Cn2cc(-c3ccccc3)c3ccnc(N4CCN(C)CC4)c32)cc1 [13a, 1-(4-Methoxybenzyl)-7-(4-methylpiperazin-1-yl)-3-phenyl-1H-pyrrolo[2,3-c]pyridine] | 5 ± 0.18 | 7 ± 0.4 | 88 to 89 | – | – | – | –
6 | COc1ccc(Cn2cc(-c3cccc(F)c3)c3ccnc(N4CCN(C)CC4)c32)cc1 [13b, 3-(3-Fluorophenyl)-1-(4-methoxybenzyl)-7-(4-methylpiperazin-1-yl)-1H-pyrrolo[2,3-c]pyridine] | 4.4 ± 0.35 | 9.3 ± 0.76 | – | – | – | – | –
7 | c1ccc(Nc2nccc3c(-c4ccccc4)c[nH]c23)cc1 [14a, Ν,3-Diphenyl-1H-pyrrolo[2,3-c]pyridin-7-amine] | 5 ± 0.1 | 0.215 ± 0.025 | 139 to 140 | rather cytotoxic to normal cells | < 10 | – | –
8 | COc1cc(Nc2nccc3c(-c4ccccc4)c[nH]c23)cc(OC)c1OC [14c, N-(3,4,5-trimethoxyphenyl)-3-phenyl-1H-pyrrolo[2,3-c]pyridin-7-amine] | 0.72 ± 0.09 | 0.47 ± 0.12 | 153 to 154 | – | < 10 | – | –
9 | COc1cc(Nc2nccc3c(-c4cccc(F)c4)c[nH]c23)cc(OC)c1OC [14d, 3-(3-Fluorophenyl)-N-(3,4,5-trimethoxyphenyl)-1H-pyrrolo[2,3-c]pyridin-7-amine] | 3.9 ± 0.3 | 1.45 ± 0.25 | 149 to 150 | – | < 10 | – | –
10 | CN1CCN(c2nccc3c(-c4ccccc4)c[nH]c23)CC1 [14e, 7-(4-Methylpiperazin-1-yl)-3-phenyl-1H-pyrrolo[2,3-c]pyridine] | 2.85 ± 0.05 | 1.75 ± 0.25 | 220 to 221 | – | < 10 | – | –
11 | CN1CCN(c2nccc3c(-c4cccc(F)c4)c[nH]c23)CC1 [14f, 3-(3-Fluorophenyl)-7-(4-methylpiperazin-1-yl)-1H-pyrrolo[2,3-c]pyridine] | 2.35 ± 0.15 | 2.35 ± 0.05 | 209 to 210 | – | – | – | –
12 | COc1ccc(Cn2cc(-c3ccccc3)c3ncnc(Nc4ccccc4)c32)cc1 [24a, 5-(4-Methoxybenzyl)-Ν,7-diphenyl-5H-pyrrolo[3,2-d]pyrimidin-4-amine] | > 10 | > 10 | 57 to 58 | – | – | – | –
13 | COc1ccc(Cn2cc(-c3cccc(F)c3)c3ncnc(Nc4ccccc4)c32)cc1 [24b, 7-(3-Fluorophenyl)-5-(4-methoxybenzyl)-Ν-phenyl-5H-pyrrolo[3,2-d]pyrimidin-4-amine] | > 10 | > 10 | 131 to 132 | – | – | – | –
14 | COc1ccc(Cn2cc(-c3ccccc3)c3ncnc(Nc4cc(OC)c(OC)c(OC)c4)c32)cc1 [24c, 5-(4-Methoxybenzyl)-N-(3,4,5-trimethoxyphenyl)-7-phenyl-5H-pyrrolo[3,2-d]pyrimidin-4-amine] | 4.5 ± 0.25 | 2.25 ± 0.35 | 187 to 188 | – | – | – | –
15 | COc1ccc(Cn2cc(-c3cccc(F)c3)c3ncnc(Nc4cc(OC)c(OC)c(OC)c4)c32)cc1 [24d, 7-(3-Fluorophenyl)-5-(4-methoxybenzyl)-N-(3,4,5-trimethoxyphenyl)-5H-pyrrolo[3,2-d]pyrimidin-4-amine] | > 10 | > 10 | 96 to 97 | – | – | – | –
16 | COc1ccc(Cn2cc(-c3ccccc3)c3ncnc(N4CCN(C)CC4)c32)cc1 [25a, 5-(4-Methoxybenzyl)-4-(4-methylpiperazin-1-yl)-7-phenyl-5H-pyrrolo[3,2-d]pyrimidine] | > 10 | > 10 | 150 to 151 | – | – | – | –
17 | COc1ccc(Cn2cc(-c3cccc(F)c3)c3ncnc(N4CCN(C)CC4)c32)cc1 [25b, 7-(3-Fluorophenyl)-5-(4-methoxybenzyl)-4-(4-methylpiperazin-1-yl)-5H-pyrrolo[3,2-d]pyrimidine] | > 10 | > 10 | 151 to 152 | – | – | – | –
18 | c1ccc(Nc2ncnc3c(-c4ccccc4)c[nH]c23)cc1 [26a, Ν,7-Diphenyl-5H-pyrrolo[3,2-d]pyrimidin-4-amine] | 2.75 ± 0.35 | 6.2 ± 0.23 | > 250 | – | – | – | –
19 | COc1cc(Nc2ncnc3c(-c4ccccc4)c[nH]c23)cc(OC)c1OC [26c, N-(3,4,5-Trimethoxyphenyl)-7-phenyl-5H-pyrrolo[3,2-d]pyrimidin-4-amine] | 7.8 ± 0.45 | 9.7 ± 0.5 | > 250 | – | – | – | –
20 | COc1cc(Nc2ncnc3c(-c4cccc(F)c4)c[nH]c23)cc(OC)c1OC [26d, 7-(3-Fluorophenyl)-N-(3,4,5-trimethoxyphenyl)-5H-pyrrolo[3,2-d]pyrimidin-4-amine] | 8.7 ± 0.58 | 5.9 ± 0.37 | 139 to 140 | – | – | – | –
21 | CN1CCN(c2ncnc3c(-c4ccccc4)c[nH]c23)CC1 [26e, 4-(4-Methylpiperazin-1-yl)-7-phenyl-5H-pyrrolo[3,2-d]pyrimidine] | > 10 | > 10 | > 250 | – | – | – | –
22 | CN1CCN(c2ncnc3c(-c4cccc(F)c4)c[nH]c23)CC1 [26f, 7-(3-Fluorophenyl)-4-(4-methylpiperazin-1-yl)-5H-pyrrolo[3,2-d]pyrimidine] | > 10 | > 10 | – | – | – | – | –
23 | c1ccc(Nc2ncnc3c(-c4ccccc4)n[nH]c23)cc1 [35a, N,3-Diphenyl-1H-pyrazolo[4,3-d]pyrimidin-7-amine] | 7.3 ± 0.62 | 4.7 ± 0.18 | – | – | – | – | –
24 | COc1cc(Nc2ncnc3c(-c4ccccc4)n[nH]c23)cc(OC)c1OC [35c, 3-Phenyl-N-(3,4,5-trimethoxyphenyl)-1H-pyrazolo[4,3-d]pyrimidin-7-amine] | 4.7 ± 0.25 | 5.7 ± 0.4 | > 250 | – | – | – | –
25 | COc1cc(Nc2ncnc3c(-c4cccc(F)c4)n[nH]c23)cc(OC)c1OC [35d, 3-(3-Fluorophenyl)-N-(3,4,5-trimethoxyphenyl)-1H-pyrazolo[4,3-d]pyrimidin-7-amine] | > 10 | > 10 | > 250 | – | – | – | –
26 | CN1CCN(c2ncnc3c(-c4ccccc4)n[nH]c23)CC1 [35e, 7-(4-Methylpiperazin-1-yl)-3-phenyl-1H-pyrazolo[4,3-d]pyrimidine] | > 10 | > 10 | – | – | – | – | –
27 | CN1CCN(c2ncnc3c(-c4cccc(F)c4)n[nH]c23)CC1 [35f, 3-(3-Fluorophenyl)-7-(4-methylpiperazin-1-yl)-1H-pyrazolo[4,3-d]pyrimidine] | > 10 | > 10 | – | – | – | – | –
28 | COc1cccc2c1C(=O)c1c(O)c3c(c(O)c1C2=O)C[C@@](O)(C(=O)CO)C[C@@H]3O[C@H]1C[C@H](N)[C@H](O)[C@H](C)O1 [Dox, Doxorubicin, reference compound] | 0.095 ± 0.01 | 0.025 ± 0.004 | – | – | – | 28 | 58
